The assay concerns the target T1, human PAH with the R408W mutation (Homo sapiens, UniProt P00439, R408W).
T1 construct: expressed in transfected cells
T1 sequence (P00439 1-452 R408W): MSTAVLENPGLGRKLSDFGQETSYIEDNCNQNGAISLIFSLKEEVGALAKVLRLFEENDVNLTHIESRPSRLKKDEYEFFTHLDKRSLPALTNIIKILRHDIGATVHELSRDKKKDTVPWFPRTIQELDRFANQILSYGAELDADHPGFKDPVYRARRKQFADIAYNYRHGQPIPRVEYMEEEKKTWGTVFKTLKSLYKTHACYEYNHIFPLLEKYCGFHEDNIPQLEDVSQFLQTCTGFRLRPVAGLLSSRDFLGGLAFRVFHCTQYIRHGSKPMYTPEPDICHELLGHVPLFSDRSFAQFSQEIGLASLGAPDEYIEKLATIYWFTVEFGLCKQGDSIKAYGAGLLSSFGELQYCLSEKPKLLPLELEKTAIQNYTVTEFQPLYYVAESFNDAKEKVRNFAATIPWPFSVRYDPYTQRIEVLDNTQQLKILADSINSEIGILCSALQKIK
The assay can be described thus: Cell Based Phenylalanine Flux Assay. The settings on record: A375 cells expressing human R408W PAH; 24 hrs compound incubation; 13C-Tyrosine by LC-MS; average where tested multiple times; read-out: AC50.

Molecules are shown by their SMILES.

As to `O=C(c1cncs1)N1CCc2[nH]cnc2[C@H]1c1nc2ccccc2[nH]1` [Example 914, (S)-(4-(1H-benzo[d]imidazol-2-yl)-6,7-dihydro-1H-imidazo[4,5-c]pyridin-5(4H)-yl)(thiazol-5-yl)methanone], the concentration at half-maximal activity (AC50) lay within 500 to 1000 nM.

For `O=C(c1cncs1)N1CCc2[nH]cnc2[C@@H]1c1nc2ccccc2[nH]1` [Example 915, (R)-(4-(1H-benzo[d]imidazol-2-yl)-6,7-dihydro-1H-imidazo[4,5-c]pyridin-5(4H)-yl)(thiazol-5-yl)methanone], the AC50 was > 5000 nM.

As for `O=C(c1nc(Cl)cs1)N1CCc2[nH]cnc2[C@H]1c1nc2ccccc2[nH]1` [Example 917, (S)-(4-(1H-benzo[d]imidazol-2-yl)-6,7-dihydro-1H-imidazo[4,5-c]pyridin-5(4H)-yl)(4-chlorothiazol-2-yl)methanone], the AC50 lay in the range of 500 to 1000 nM.

Consider `COc1cccc(CCCC(=O)N2CCc3[nH]cnc3[C@@H]2c2nc3ccccc3[nH]2)c1` [Example 918, (R)-1-(4-(1H-benzo[d]imidazol-2-yl)-6,7-dihydro-1H-imidazo[4,5-c]pyridin-5(4H)-yl)-4-(3-methoxyphenyl)butan-1-one], for which the concentration at half-maximal activity (AC50) was > 5000 nM.

Consider `COc1cccc(CCCC(=O)N2CCc3[nH]cnc3[C@H]2c2nc3ccccc3[nH]2)c1` [Example 919, (S)-1-(4-(1H-benzo[d]imidazol-2-yl)-6,7-dihydro-1H-imidazo[4,5-c]pyridin-5(4H)-yl)-4-(3-methoxyphenyl)butan-1-one], for which the half-maximal activity concentration (AC50) was in the range of 1000 to 5000 nM.

As to `O=C(c1ncc(Cl)s1)N1CCc2[nH]cnc2[C@@H]1c1nc2ccccc2[nH]1` [Example 920, (R)-(4-(1H-benzo[d]imidazol-2-yl)-6,7-dihydro-1H-imidazo[4,5-c]pyridin-5(4H)-yl)(5-chlorothiazol-2-yl)methanone], the AC50 is > 5000 nM.

For `O=C(c1ncc(Cl)s1)N1CCc2[nH]cnc2[C@H]1c1nc2ccccc2[nH]1` [Example 921, (S)-(4-(1H-benzo[d]imidazol-2-yl)-6,7-dihydro-1H-imidazo[4,5-c]pyridin-5(4H)-yl)(5-chlorothiazol-2-yl)methanone], the half-maximal activity concentration (AC50) fell in the range of 500 to 1000 nM.

With `O=C(c1cnn2ccccc12)N1CCc2[nH]cnc2[C@@H]1c1nc2ccccc2[nH]1` [Example 922, (R)-(4-(1H-benzo[d]imidazol-2-yl)-6,7-dihydro-1H-imidazo[4,5-c]pyridin-5(4H)-yl)(pyrazolo[1,5-a]pyridin-3-yl)methanone], the AC50 is > 5000 nM.

As for `O=C(c1cnn2ccccc12)N1CCc2[nH]cnc2[C@H]1c1nc2ccccc2[nH]1` [Example 923, (S)-(4-(1H-benzo[d]imidazol-2-yl)-6,7-dihydro-1H-imidazo[4,5-c]pyridin-5(4H)-yl)(pyrazolo[1,5-a]pyridin-3-yl)methanone], the AC50 fell in the range of 500 to 1000 nM.

As for `O=C(c1cnn2cc(F)ccc12)N1CCc2[nH]cnc2[C@H]1c1nc2ccccc2[nH]1` [Example 924, (S)-(4-(1H-benzo[d]imidazol-2-yl)-6,7-dihydro-1H-imidazo[4,5-c]pyridin-5(4H)-yl)(6-fluoropyrazolo[1,5-a]pyridin-3-yl)methanone], the AC50 fell in the range of 500 to 1000 nM.

As for `O=C(c1cnn2ccc(Br)cc12)N1CCc2[nH]cnc2[C@H]1c1nc2ccccc2[nH]1` [Example 925, (S)-(4-(1H-benzo[d]imidazol-2-yl)-6,7-dihydro-3H-imidazo[4,5-c]pyridin-5(4H)-yl)(5-bromopyrazolo[1,5-a]pyridin-3-yl)methanone], the half-maximal activity concentration (AC50) lay in the range of 1000 to 5000 nM.

As to `O=C(c1ccccc1)N1CCc2[nH]cnc2[C@H]1c1nc2ccccc2[nH]1` [Example 928, (S)-(4-(1H-benzo[d]imidazol-2-yl)-1,4,6,7-tetrahydro-5H-imidazo[4,5-c]pyridin-5-yl)(phenyl)methanone], the concentration at half-maximal activity (AC50) was 500 to 1000 nM.

For the compound `O=C(CC1CCCC1)N1CCc2[nH]cnc2[C@H]1c1nc2ccccc2[nH]1` [Example 929, (S)-1-(4-(1H-benzo[d]imidazol-2-yl)-6,7-dihydro-1H-imidazo[4,5-c]pyridin-5(4H)-yl)-2-cyclopentylethanone], the half-maximal activity concentration (AC50) is < 500 nM.

Values taken from patent US20250171438A1 (Agios Pharmaceuticals, Inc., priority 2022, published 2025).
